Data: patent US20090298055A1, “PRODUCTION OF PROTEINS” (Applied Research Systems ARS Holding S.A., priority 2004, published 2009)
“Also recorded” adds a separate entry of the source.

Tests used:
Type in all cases: cell-based, Chinese hamster
[1] = system: CHO AA8 cells; test: Cell growth inhibition by lipophilic antifolates; details: Cricetulus griseus; printed after 'CHO AA8 counterpart', data not shown
Experimental: (§1) Cell growth inhibition by antifolates—For antifolate cell growth inhibition, cells (10^4/well) were seeded in 24-well plates in the respective growth medium (AA8 and derivatives in RPMI+10% FCS, and CHO-S cells in CD-CHO) containing various concentrations of MTX or the lipophilic antifolates, trimeterxate (Dr. David Fry, Warner-Lambert, Parke-Davis, Detroit, Mich.) and incubated for 3 days at 37° C. Thereafter, cells were detached by trypsinization and the number of viable cells was determined using trypan blue exclusion. The 50% inhibitory concentration (IC50) is defined as the drug concentration at which cell growth is inhibited by 50% relative to untreated controls.

[2] = system: MTX-resistant CHO AA8 C4R0.15 and C5R0.15 cells; test: Cell growth inhibition by lipophilic antifolates; details: data not shown
Experimental: as §1

[3] = system: CHO-S R0.15 cells (RFC deficient); test: Cell growth inhibition by antifolates (trypan blue exclusion, 3 days)
Experimental: as §1

[4] = system: CHO-S cells; test: as above; details: Cricetulus griseus, 72 h, read-out: 50% inhibition of cell growth (IC50)
Experimental: as §1

[5] = system: CHO-S R0.15 cells; test: F-MTX staining and competition with antifolates (flow cytometry); details: for concentration for complete displacement of F-MTX: 2 μM F-MTX, 3 hours competition
Experimental: (§2) F-MTX staining and competition with hydrophilic and lipophilic antifolates—Cells were seeded in 60-mm Petri dish and incubated for 8 hours at 37° C. in growth medium containing 2 μM fluorescein-MTX (F-MTX). Cells were then washed with PBS and subjected to competition with MTX and its lipophilic analogue TMQ. Following 3 hours of incubation, cells were detached by trypsinization, suspended in PBS containing 1% fetal calf serum and the residual green fluorescence per cell was determined using a flow cytometer (FACSCalibur, Becton-Dickinson) at an excitation of 488 nm and emission of 525 nm. Autofluorescence of unstained cells was routinely recorded.

[6] = system: CHO-S cells; test: as above; details: 2 μM F-MTX, 3 hours competition
Experimental: as §2

[7] = system: hRFC and hRFC-HA CHO AA8 C5R0.15 transfectants; test: MTX growth inhibition assay
Experimental: as §1
(§3) Cell growth assays and inhibition by antifolates—as described in Example 2, hereinabove.

[8] = system: parental CHO AA8 C5 cells (RFC deficient); test: MTX growth inhibition assay; details: Cricetulus griseus, 72 h, 3 days
Experimental: as §1, §3

[9] = system: CHO AA8 C4R0.15 and CHO AA8 C5R0.15 cells; test: F-MTX staining and competition with antifolates (flow cytometry); details: CHO AA8 C4R0.15 and C5R0.15 cells
Experimental: as §2

[10] = system: CHO AA8 cells; test: as above
Experimental: as §2

[11] = system: CHO AA8 C4 R0.15 and C5 R0.15 cell lines; test: [3H]-MTX transport assay; details: 2 μM [3H]-MTX, 3 minutes
Experimental: (§4) [^3H]-MTX transport—In order to determine the ability of the antifolate-resistant clones to take up antifolates the influx rates of [^3H]-MTX were measured and compared to the control CHO AA8 cells. Cells (2×10^7) from the mid-log phase of growth were washed three times in transport buffer consisting of HEPES-buffered saline solution (HBSS, Rothem et al., 2002) and incubated for 3 minutes at 37° C. in the presence of HBSS (1 ml suspensions) containing 2 μM [^3H]-MTX. Transport controls contained a 500-fold excess (1 mM) of unlabeled MTX. The transport of [^3H]-MTX was stopped by the addition of 10 ml of ice-cold HBSS. The cell suspension was then centrifuged for 5 minutes at 4° C. using a centrifugation speed of 500×g, following which the cell pellet was washed twice with 10 ml of ice-cold transport buffer. The final cell pellet was suspended in water and processed for scintillation counting.

[12] = system: CHO-S-R0.04 cells (selected in 40 nM MTX); test: [3H]-MTX transport assay; details: 2 μM [3H]-MTX, 3 minutes
Experimental: as §4

[13] = system: CHO-S-R0.12 cells (selected in 120 nM MTX); test: [3H]-MTX transport assay; details: 2 μM [3H]-MTX, 3 minutes
Experimental: as §4

Row | SMILES | IC50 [1] | hypersensitivity compared to CHO AA8 counterpart [2] | IC50 ([3]; Cricetulus griseus, 72 h, CHO-S R0.15 cells, read-out: 50% inhibition of cell growth (IC50)) | hypersensitivity of CHO-SR0.15 cells as compared with parental CHO cells ([3]; ratio of 50% inhibitory concentrations) | IC50 [4] | concentration for complete displacement of F-MTX [5] | concentration resulting in complete loss of F-MTX fluorescence [6] | IC50 ([7]; Cricetulus griseus, CHO-AA8, 72 h, hRFC and hRFC-HA transfectants, 3 days) | increase in MTX sensitivity ([7]; RFC and RFC-HA transfectants vs C5R0.15 cells) | IC50 [8] | concentration required to completely displace F-MTX fluorescence [9] | concentration resulting in complete loss of F-MTX fluorescence [10] | loss of cellular F-MTX staining ([5]; competition with 100 nM MTX) | concentration at which cells completely lost their F-MTX staining [6] | loss of MTX uptake relative to control AA8 cells [11] | loss of control CHO-S transport activity [12] | loss of control CHO-S transport activity [13]
1 | COc1ccc(OC)c(Cc2cnc3nc(N)nc(N)c3c2C)c1 [PTX, piritrexim] | ~8 nM | > 3 fold |  |  |  |  |  |  |  |  |  |  |  |  |  |  | 
2 | COc1cc(NCc2ccc3nc(N)nc(N)c3c2C)cc(OC)c1OC [TMQ, Trimetrexate] | ~6 nM | > 5 fold | 10 nM | 8 fold | ~40 nM | 10 nM | 10 nM |  |  |  |  |  |  |  |  |  | 
3 | CN(Cc1cnc2nc(N)nc(N)c2n1)c1ccc(C(=O)N[C@@H](CCC(=O)O)C(=O)O)cc1 [MTX, methotrexate] |  |  |  |  |  | 1000 nM |  | 27 to 29 nM | 100 fold | ~3000 nM | 3 µM | 30 nM | did not result in any loss; also recorded: Retention of F-MTX fluorescence | 100 nM | 90-91% | 92.5% | 96.4%
